Several values for one entry are separate records, joined by “and”; a condition that tells them apart may be missing. Identical values can stand only once. Activity calls are given as the source filed them. How the calls were made is not given here.
Test system: rodent lifetime carcinogenesis bioassay, tumor incidence TD50
Experiment: carcinogenic potency in animals, long-term in vivo studies, CPDB compilation (AID 1745844)

Nc1nc(N)nc(-c2ccccc2)n1
TD50 (mouse, strain CD-1 HaM/ICR, females, in feed, site: any site (literature study), lesion: several types, types named in the paper, dosed 77 weeks, study length 94 weeks): 932 mg/kg/day (inactive)
TD50 (mouse, strain CD-1 HaM/ICR, females, in feed, site: liver, lesion: several types, types named in the paper, dosed 77 weeks, study length 94 weeks): 2040 mg/kg/day (inactive)
TD50 (mouse, strain CD-1 HaM/ICR, females, in feed, site: lung, lesion: several types, types named in the paper, dosed 77 weeks, study length 94 weeks): 9340 mg/kg/day (inactive)
TD50 (mouse, strain CD-1 HaM/ICR, males, in feed, site: any site (literature study), lesion: several types, types named in the paper, dosed 73 weeks, study length 94 weeks): 439 mg/kg/day (inactive)
TD50 (mouse, strain CD-1 HaM/ICR, males, in feed, site: liver, lesion: several types, types named in the paper, dosed 73 weeks, study length 94 weeks): 3200 mg/kg/day (inactive)
TD50 (mouse, strain CD-1 HaM/ICR, males, in feed, site: lung, lesion: several types, types named in the paper, dosed 73 weeks, study length 94 weeks): 304 mg/kg/day (inactive)
TD50 (rat, strain Charles River CD (Sprague-Dawley), males, in feed, site: any site (literature study), lesion: several types, types named in the paper, dosed 77 weeks, study length 94 weeks): 16.3 mg/kg/day (inactive)
carcinogen call (rat, strain Charles River CD (Sprague-Dawley), males, in feed, site: liver, lesion: several types, types named in the paper, dosed 77 weeks, study length 94 weeks): negative (inactive)

CCC[CH2][Sn]([CH2]CCC)([CH2]CCC)[O][Sn]([CH2]CCC)([CH2]CCC)[CH2]CCC
TD50 (rat, strain Wistar, females, in feed, site: adrenal medulla, lesion: pheochromocytoma, dosed 106 weeks, study length 106 weeks): 1.79 mg/kg/day
TD50 (rat, strain Wistar, females, in feed, site: pituitary gland, anterior, lesion: one or several types, types not named, dosed 106 weeks, study length 106 weeks): 3.73 mg/kg/day
TD50 (rat, strain Wistar, males, in feed, site: adrenal medulla, lesion: pheochromocytoma, dosed 106 weeks, study length 106 weeks): 1.93 mg/kg/day
TD50 (rat, strain Wistar, males, in feed, site: pituitary gland, anterior, lesion: one or several types, types not named, dosed 106 weeks, study length 106 weeks): 1.9 mg/kg/day

C=CC(O)c1ccc2c(c1)OCO2 (centres undefined)
TD50 (mouse, strain (B6C3F1 x B6C3 background, brachymorphic) inter se = B6C3F2 br, females, in feed, site: liver, lesion: hepatoma, dosed 52 weeks, study length 69 weeks): 1530 mg/kg/day
TD50 (mouse, strain (B6C3F1 x B6C3 background, brachymorphic) inter se = B6C3F2 ph, females, in feed, site: liver, lesion: hepatoma, dosed 52 weeks, study length 69 weeks): 53.3 mg/kg/day
TD50 (mouse, strain Charles River CD1, females, in feed, site: liver, lesion: hepatocellular carcinoma, dosed 51 weeks, study length 73 weeks): 68 mg/kg/day
TD50 (mouse, strain Charles River CD1, females, in feed, site: liver, lesion: hepatoma, dosed 52 weeks, study length 69 weeks): 49.1 mg/kg/day
TD50 (mouse, strain Charles River CD1, females, in feed, site: lung, lesion: adenoma, dosed 52 weeks, study length 69 weeks): 3670 mg/kg/day
TD50 (mouse, strain Charles River CD1, females, in feed, site: subcutaneous tissue, lesion: angiosarcoma, dosed 51 weeks, study length 73 weeks): 1550 mg/kg/day
TD50 (mouse, strain Charles River CD1, males, in feed, site: interscapulum, lesion: angiosarcoma, dosed 56 weeks, study length 69 weeks): 429 mg/kg/day
TD50 (mouse, strain Charles River CD1, males, in feed, site: liver, lesion: carcinoma, dosed 56 weeks, study length 69 weeks): 18900 mg/kg/day
TD50 (mouse, strain Charles River CD1, males, in feed, site: lung, lesion: adenoma, dosed 56 weeks, study length 69 weeks): 5470 mg/kg/day
TD50 (rat, strain Charles River CD (Sprague-Dawley), males, in feed, site: forestomach, lesion: papilloma, dosed 36 weeks, study length 52 weeks): 65.8 mg/kg/day
TD50 (rat, strain Charles River CD (Sprague-Dawley), males, in feed, site: forestomach, lesion: papilloma, dosed 43 weeks, study length 69 weeks): 59.8 mg/kg/day
TD50 (rat, strain Charles River CD (Sprague-Dawley), males, in feed, site: liver, lesion: carcinoma, dosed 36 weeks, study length 52 weeks): 12.1 mg/kg/day
TD50 (rat, strain Charles River CD (Sprague-Dawley), males, in feed, site: liver, lesion: carcinoma, dosed 43 weeks, study length 69 weeks): 16.7 mg/kg/day
TD50 (rat, strain Charles River CD (Sprague-Dawley), males, in feed, site: liver, lesion: hepatocellular carcinoma, dosed 58 weeks, study length 95 weeks): 47.8 mg/kg/day

NC(=O)N/N=C/c1ccco1
TD50 (rat, strain Sprague-Dawley, females, in feed, site: mammary gland, lesion: fibroadenoma, dosed 46 weeks, study length 66 weeks): 48.8 mg/kg/day (inactive)

FC(F)OC(F)(F)C(F)Cl (centres undefined)
carcinogen call (mouse, strain Swiss/ICR, females, inhaled, site: liver, lesion: one or several types, types not named, dosed 52 weeks, study length 52 weeks): negative (inactive)
carcinogen call (mouse, strain Swiss/ICR, females, inhaled, site: liver, lesion: several types, types named in the paper, dosed 78 weeks, study length 82 weeks): negative (inactive)
TD50 (mouse, strain Swiss/ICR, females, inhaled, site: lung, lesion: adenoma, dosed 52 weeks, study length 52 weeks): 8930 mg/kg/day (inactive)
TD50 (mouse, strain Swiss/ICR, females, inhaled, site: lung, lesion: adenoma, dosed 78 weeks, study length 82 weeks): 18900 mg/kg/day (inactive)
TD50 (mouse, strain Swiss/ICR, males, inhaled, site: liver, lesion: several types, types named in the paper, dosed 52 weeks, study length 52 weeks): 8120 mg/kg/day (inactive)
TD50 (mouse, strain Swiss/ICR, males, inhaled, site: liver, lesion: several types, types named in the paper, dosed 78 weeks, study length 82 weeks): 11700 mg/kg/day (inactive)
carcinogen call (mouse, strain Swiss/ICR, males, inhaled, site: lung, lesion: adenoma, dosed 52 weeks, study length 52 weeks): negative (inactive)
TD50 (mouse, strain Swiss/ICR, males, inhaled, site: lung, lesion: adenoma, dosed 78 weeks, study length 82 weeks): 60900 mg/kg/day (inactive)

Cc1ccccc1N
TD50 (mouse, strain B6C3F1, females, in feed, site: any site (literature study), lesion: several types, types named in the paper, dosed 102 weeks, study length 102 weeks): 1350 mg/kg/day
TD50 (mouse, strain B6C3F1, females, in feed, site: liver, lesion: hepatocellular adenoma + hepatocellular carcinoma + neoplastic nodule, dosed 102 weeks, study length 102 weeks): 754 mg/kg/day
TD50 (mouse, strain B6C3F1, females, in feed, site: liver, lesion: hepatocellular adenoma + hepatocellular carcinoma, dosed 102 weeks, study length 102 weeks): 754 mg/kg/day
TD50 (mouse, strain B6C3F1, females, in feed, site: liver, lesion: hepatocellular carcinoma, dosed 102 weeks, study length 102 weeks): 1520 mg/kg/day
TD50 (mouse, strain B6C3F1, males, in feed, site: all sites, lesion: hemangioma + hemangiosarcoma, dosed 102 weeks, study length 102 weeks): 926 mg/kg/day
TD50 (mouse, strain B6C3F1, males, in feed, site: all sites, lesion: hemangiosarcoma, dosed 102 weeks, study length 102 weeks): 1220 mg/kg/day
TD50 (mouse, strain B6C3F1, males, in feed, site: liver, lesion: hepatocellular adenoma + hepatocellular carcinoma + neoplastic nodule, dosed 102 weeks, study length 102 weeks): 12700 mg/kg/day
TD50 (mouse, strain CD-1 HaM/ICR, females, in feed, site: all sites, lesion: all vascular tumors, dosed 68 weeks, study length 90 weeks): 1240 mg/kg/day
TD50 (mouse, strain CD-1 HaM/ICR, females, in feed, site: any site (literature study), lesion: several types, types named in the paper, dosed 68 weeks, study length 90 weeks): 699 mg/kg/day
TD50 (mouse, strain CD-1 HaM/ICR, females, in feed, site: liver, lesion: several types, types named in the paper, dosed 68 weeks, study length 90 weeks): 1650 mg/kg/day (inactive)
carcinogen call (mouse, strain CD-1 HaM/ICR, females, in feed, site: lung, lesion: several types, types named in the paper, dosed 68 weeks, study length 90 weeks): negative (inactive)
TD50 (mouse, strain CD-1 HaM/ICR, males, in feed, site: all sites, lesion: all vascular tumors, dosed 68 weeks, study length 90 weeks): 646 mg/kg/day and 660 mg/kg/day
TD50 (mouse, strain CD-1 HaM/ICR, males, in feed, site: any site (literature study), lesion: several types, types named in the paper, dosed 68 weeks, study length 90 weeks): 325 mg/kg/day
TD50 (mouse, strain CD-1 HaM/ICR, males, in feed, site: liver, lesion: several types, types named in the paper, dosed 68 weeks, study length 90 weeks): 1400 mg/kg/day (inactive)
TD50 (mouse, strain CD-1 HaM/ICR, males, in feed, site: lung, lesion: several types, types named in the paper, dosed 68 weeks, study length 90 weeks): 1160 mg/kg/day (inactive)
TD50 (rat, strain Charles River CD (Sprague-Dawley), males, in feed, site: any site (literature study), lesion: several types, types named in the paper, dosed 64 weeks, study length 68 weeks): 36.1 mg/kg/day
TD50 (rat, strain Charles River CD (Sprague-Dawley), males, in feed, site: liver, lesion: several types, types named in the paper, dosed 64 weeks, study length 68 weeks): 2960 mg/kg/day (inactive)
TD50 (rat, strain Charles River CD (Sprague-Dawley), males, in feed, site: subcutaneous tissue, lesion: several types, types named in the paper, dosed 64 weeks, study length 68 weeks): 36.7 mg/kg/day and 38.8 mg/kg/day
TD50 (rat, strain Charles River CD (Sprague-Dawley), males, in feed, site: urinary bladder, lesion: several types, types named in the paper, dosed 64 weeks, study length 68 weeks): 131 mg/kg/day
TD50 (rat, strain Fischer 344, females, in feed, site: any site (literature study), lesion: several types, types named in the paper, dosed 104 weeks, study length 104 weeks): 75.8 mg/kg/day
TD50 (rat, strain Fischer 344, females, in feed, site: mammary gland + multiple organs + spleen + urinary bladder, lesion: adenoma, NOS + fibroadenoma + angiosarcoma + fibrosarcoma + osteosarcoma + sarcoma, NOS + transitional-cell carcinoma + transitional-c, dosed 104 weeks, study length 104 weeks): 77.9 mg/kg/day
TD50 (rat, strain Fischer 344, females, in feed, site: mammary gland, lesion: adenoma, NOS + fibroadenoma, dosed 104 weeks, study length 104 weeks): 119 mg/kg/day
TD50 (rat, strain Fischer 344, females, in feed, site: mammary gland, lesion: fibroadenoma, dosed 104 weeks, study length 104 weeks): 115 mg/kg/day
TD50 (rat, strain Fischer 344, females, in feed, site: multiple organs, lesion: angiosarcoma + fibrosarcoma + osteosarcoma + sarcoma, NOS, dosed 104 weeks, study length 104 weeks): 332 mg/kg/day
TD50 (rat, strain Fischer 344, females, in feed, site: multiple organs, lesion: osteosarcoma, dosed 104 weeks, study length 104 weeks): 423 mg/kg/day
TD50 (rat, strain Fischer 344, females, in feed, site: spleen, lesion: angiosarcoma + osteosarcoma + sarcoma, NOS, dosed 104 weeks, study length 104 weeks): 337 mg/kg/day
TD50 (rat, strain Fischer 344, females, in feed, site: spleen, lesion: angiosarcoma, dosed 104 weeks, study length 104 weeks): 450 mg/kg/day
TD50 (rat, strain Fischer 344, females, in feed, site: urinary bladder, lesion: transitional-cell carcinoma + transitional-cell papilloma, dosed 104 weeks, study length 104 weeks): 175 mg/kg/day
TD50 (rat, strain Fischer 344, females, in feed, site: urinary bladder, lesion: transitional-cell carcinoma, dosed 104 weeks, study length 104 weeks): 185 mg/kg/day
TD50 (rat, strain Fischer 344, males, in feed, site: any site (literature study), lesion: several types, types named in the paper, dosed 102 weeks, study length 104 weeks): 24.4 mg/kg/day
TD50 (rat, strain Fischer 344, males, in feed, site: liver, lesion: hepatocellular adenoma + hepatocellular carcinoma + neoplastic nodule, dosed 102 weeks, study length 104 weeks): 645 mg/kg/day
TD50 (rat, strain Fischer 344, males, in feed, site: liver, lesion: several types, types named in the paper, dosed 72 weeks, study length 93 weeks): 1000 mg/kg/day
TD50 (rat, strain Fischer 344, males, in feed, site: mammary tissue, wider than the gland, lesion: fibroadenoma, dosed 72 weeks, study length 93 weeks): 149 mg/kg/day
TD50 (rat, strain Fischer 344, males, in feed, site: multiple organs + spleen + subcutaneous tissue + tunica vaginalis, lesion: angiosarcoma + fibrosarcoma + mesothelioma + osteosarcoma + sarcoma, NOS + fibroma, dosed 102 weeks, study length 104 weeks): 23.3 mg/kg/day
TD50 (rat, strain Fischer 344, males, in feed, site: multiple organs + tunica vaginalis, lesion: mesothelioma, dosed 102 weeks, study length 104 weeks): 97.4 mg/kg/day
TD50 (rat, strain Fischer 344, males, in feed, site: multiple organs, lesion: angiosarcoma + fibrosarcoma + osteosarcoma + sarcoma, NOS, dosed 102 weeks, study length 104 weeks): 93.2 mg/kg/day
TD50 (rat, strain Fischer 344, males, in feed, site: multiple organs, lesion: fibrosarcoma, dosed 102 weeks, study length 104 weeks): 184 mg/kg/day
TD50 (rat, strain Fischer 344, males, in feed, site: multiple organs, lesion: sarcoma, NOS, dosed 102 weeks, study length 104 weeks): 394 mg/kg/day
TD50 (rat, strain Fischer 344, males, in feed, site: peritoneal cavity, lesion: spindle-cell sarcoma, dosed 72 weeks, study length 93 weeks): 190 mg/kg/day
TD50 (rat, strain Fischer 344, males, in feed, site: skin, lesion: fibroma, dosed 72 weeks, study length 93 weeks): 38.7 mg/kg/day
TD50 (rat, strain Fischer 344, males, in feed, site: spleen, lesion: fibroma, dosed 72 weeks, study length 93 weeks): 167 mg/kg/day
TD50 (rat, strain Fischer 344, males, in feed, site: spleen, lesion: fibroma, dosed 102 weeks, study length 104 weeks): 134 mg/kg/day
TD50 (rat, strain Fischer 344, males, in feed, site: subcutaneous tissue, lesion: fibroma, dosed 102 weeks, study length 104 weeks): 33.3 mg/kg/day
TD50 (rat, strain Fischer 344, males, in feed, site: urinary bladder, lesion: several types, types named in the paper, dosed 72 weeks, study length 93 weeks): 474 mg/kg/day

From PubChem BioAssay AID1745844 (Carcinogenic Potency Database (CPDB), 2022)
